Experimental data taken from US9433687B2, “Anti-Notch3 antibodies and antibody-drug conjugates” (Pfizer Inc., priority 2012, dated 2016).

Columns and labels:
[1] = OVCAR3 ovarian xenograft model; details: female, SCID Hairless Outbred (SHO), mouse, in vivo, ip
[2] = tested on: OVCAR3 ovarian xenografts; experiment: OVCAR3 ovarian xenograft model; details: dose 60 mg/kg (30 mg/kg twice a day) intraperitoneally Q7d×4

Structure (SMILES): CC(=O)O[C@H]1C(=O)[C@@]2(C)[C@H]([C@H](OC(=O)c3ccccc3)[C@]3(O)C[C@H](OC(=O)[C@H](O)[C@@H](NC(=O)c4ccccc4)c4ccccc4)C(C)=C1C3(C)C)[C@]1(OC(C)=O)CO[C@@H]1C[C@@H]2O [paclitaxel, reference compound]
- MTD [1]: 60 mg/kg
- tumor volume ([2]; DAY 0): 169 mm3
- tumor volume ([2]; DAY 6): 139 mm3
- tumor volume ([2]; DAY 11): 85 mm3
- tumor volume ([2]; DAY 14): 84 mm3
- tumor volume ([2]; DAY 18): 61 mm3
- tumor volume ([2]; DAY 21): 50 mm3
- tumor volume ([2]; DAY 25): 41 mm3
- tumor volume ([2]; DAY 28): 44 mm3
- tumor volume ([2]; DAY 31): 43 mm3
- tumor volume ([2]; DAY 34): 50 mm3
- tumor volume ([2]; DAY 38): 55 mm3
- tumor volume ([2]; DAY 41): 38 mm3
- tumor volume ([2]; DAY 45): 39 mm3
- tumor volume ([2]; DAY 49): 40 mm3
- tumor volume ([2]; DAY 53): 40 mm3
- tumor volume ([2]; DAY 56): 39 mm3
- tumor volume ([2]; DAY 59): 37 mm3
- tumor volume ([2]; DAY 63): 42 mm3
- tumor volume ([2]; DAY 67): 33 mm3
- tumor volume ([2]; DAY 70): 28 mm3
- tumor volume ([2]; DAY 74): 32 mm3
- tumor volume ([2]; DAY 77): 31 mm3
- tumor volume ([2]; DAY 80): 31 mm3
- tumor volume ([2]; DAY 83): 38 mm3
- tumor volume ([2]; DAY 87): 28 mm3
- tumor volume ([2]; DAY 90): 32 mm3
- tumor volume ([2]; DAY 94): 30 mm3
- tumor volume ([2]; DAY 97): 31 mm3
- tumor volume ([2]; DAY 102): 26 mm3
- tumor volume ([2]; DAY 105): 31 mm3
- tumor volume ([2]; DAY 108): 28 mm3
- tumor volume ([2]; DAY 111): 26 mm3
- tumor volume ([2]; DAY 115): 31 mm3
- tumor volume ([2]; DAY 118): 26 mm3
- tumor volume ([2]; DAY 122): 31 mm3
